Measurements published in patent US12162918B2, “Periostin compounds for the treatment of haematological complications” (Chemotherapeutisches Forschungsinstitut Georg-Speyer-Haus, priority 2018, dated 2024).

Tests used:
[1] = system: Nestin-GFP or Col2.3 kb GFP mice; assay: Enumeration of Nestin-GFP+ MSC and Col2.3 kb GFP+ osteoblastic cells in bones; assay type: in vivo; conditions: warfarin 14 days
Description: (§1) 7 to 10 week old C57BL6/N (CD45.2) or SJL (CD45.1; B6.SJL-Ptprca Pepcb/BoyJ), Col1a1 2.3 kb-GFP (kind gift from D. Rowe), Nestin-GFP (Mignone et al., 2004) and periostin knockout mice (kind gift from Juerg Huelsken) were used for these experiments. NOD SCID interleukin (IL)-2 receptor γ deficient (NSG) mice were purchased from Charles River Laboratories (Sulzfeld, Germany) and bred in our facility. All animal studies were approved by the local German government (Regierungspräsidium Darmstadt) in Hessen, Germany, and by the Institutional Animal Care and Use Committee (IACUC) of Boston University.
(§2) 0.5 mg/kg/d or 0.05 mg/kg/d of warfarin, resuspended in phosphate-buffered saline was administered to mice via subcutaneously implanted osmotic minipumps (ALZET minipumps, Cupertino, CA). The osmotic minipumps were changed after 14 days (if the experiment went beyond 14 days of treatment). Sham operated (skin incision and suture) mice served as controls. Warfarin treatment continued for 10-14 days. In the xenotransplantation experiments the mice were treated with warfarin via the drinking water (or normal drinking water) at a dose of 0.72 mg/100 ml for a total of 3 days a week (Pfeilschifter et al., 2011).

patients = assay: Peripheral blood counts of patients on VKA versus control patients; assay type: in vivo, human
Description: For FIGS. 6C-6H: Data of patients on VKA were obtained from the French health care databases. Patients with hematological disease, inflammation or sepsis were excluded. Patients admitted to the hospital for dermatological problems without hematological disease or sepsis acted as controls.

periostin knockout mice = assay: Warfarin treatment of periostin knockout mice; assay type: in vivo
Description: as §1, §2
5-fluorouracil was intraperitoneally injected every week at a dose of 75 mg/kg for a total of 4 doses or as a one time dose of 200 mg/kg. […]

wildtype mice = assay: Measurement of the INR of warfarin-treated mice; assay type: in vivo; conditions: only at 0.5 mg/kg, vs sham-operated control mice, P=0.009
Experimental: as §2
A Coaguchek XS (Roche Diagnostics, Mannheim, Germany) and Coaguchek XS PT test strips were used to determine the INR of vehicle- and warfarin-treated mice.

human CD34+ cells [2] = assay: Intrafemoral cotransplantation of human CD34+ cells with treated human stroma cells into NSG mice; assay type: in vivo
Experimental: For the intrafemoral co-transplantation experiments 0.8×10^5 human CD34+ cells or 1×10^5 Lin− cells from Actin-DsRed reporter mice were mixed with 5×10^5 human or murine stroma cells which had been expanded in vitro and pretreated with vehicle or 2 μM warfarin for 14 days. The human stromal cells had been obtained via flushing of discarded bones from the orthopedic operating room, as approved of by the local ethics committee.
We assessed the complete blood count of vehicle or warfarin-treated mice using a complete blood count analyzer (Scil Vet ABC, Gurnee, IL). Peripheral blood and bone marrow samples were stained with antibodies for flow cytometry, which was performed on a BD LSR Fortessa (BD Biosciences, Heidelberg, Germany). The lineage antibody cocktail contained antibodies to B220, CD5, Ter119, F4/80 and CD11b. Engraftment of human cells in NSG mice was assessed using anti-human CD45 (BD Biosciences, San José, CA).
Stroma and hematopoietic cells (purified for CD34+) were taken from the iliac crest of healthy donors of allogeneic bone marrow.

human CD34+ cells [3] = assay: Xenotransplantation of human CD34+ cells into warfarin-treated NSG mice; assay type: in vivo; conditions: warfarin- vs vehicle-treated NSG mice, 6 weeks after transplantation, P=0.015
Experimental: as §2
For the xenotransplantation experiments, we intravenously injected 1.3×10^5 human CD34+ cells, obtained via magnetic separation by magnetic beads (Miltenyi Biotech, Bergisch Gladbach, Germany) from BM filters used after harvest of non-mobilized HSPC from healthy allogeneic donors, into irradiated (250 cGy) NSG mice, which had previously been treated with vehicle or warfarin for 14 days.
We assessed the complete blood count of vehicle or warfarin-treated mice using a complete blood count analyzer (Scil Vet ABC, Gurnee, IL). […] Engraftment of human cells in NSG mice was assessed using anti-human CD45 (BD Biosciences, San José, CA).

[4] = system: Lin− hematopoietic cells on stroma cells; assay: Cobblestone-formation and coculture assay of Lin− cells on stroma cells; assay type: cell-based, mice
Experimental: In the co-culture and cobblestone assays 20,000 Lin− cells were plated on stroma cells, which had been grown and expanded from vehicle- or warfarin-treated mice in medium (α-MEM medium supplemented with 20% fetal bovine serum, 1% penicillin/streptomycin, 1% L-Glutamine) containing vehicle or warfarin (2 μM). Conditioned medium was harvested from stroma from 5 mice grown in the above medium containing vehicle or warfarin for 7 days. Consequently, 100,000 Lin− cells were grown for 2-3 days in the conditioned medium and analyzed for cell counts by flow cytometry. Where indicated, the conditioned medium was concentrated using Microsep Advance Centrifugal Devices 30K Omega (Pall Life Sciences, Portsmouth, UK).
For all coculture assays hematopoietic and stroma cells were derived from the same mouse strain (C57/B16). Stroma cells were used after a maximum of two passages and when they were 70-80% confluent. Stroma cells were derived by crushing bones from mice, plating them in α-MEM medium containing 20% fetal calf serum, penicillin/strptomycin and by removing non-adherent hematopoietic cells the following day, as described (Mukherjee et al., 2008).

stroma cells = assay: Focused gene expression analysis of stroma cells; assay type: cell-based, mice; conditions: warfarin- compared to vehicle-treated stroma cells
LKS and LKS SLAM cells = assay: G-CSF-mediated mobilization; assay type: in vivo; conditions: warfarin-treated mice
Experimental: In the mobilization experiments vehicle- or warfarin-treated C57/B16 mice were treated with 200 μg/kg G-CSF daily for 4 days, sacrificed on day 5 and peripheral blood analyzed for LKS and LKS SLAM cells by flow cytometry.

CC(=O)CC(c1ccccc1)c1c(O)c2ccccc2oc1=O (centres unmarked) [warfarin]
number of Col2.3 kb+ osteoblastic cells [1]: n.s. and no reduction
number of Nestin+ MSC ([1]; P=0.047): significant reduction
absolute number of leukocytes (patients; 282 patients on warfarin (P=0.0007) or 89 on fluindione (P=0.029) vs 145 control patients): significantly decreased
absolute number of monocytes (patients; 282 patients on warfarin (P=0.004) or 89 on fluindione (P=0.046) vs 145 control patients): significantly decreased
percentage of eosinophils (patients; 282 patients on warfarin vs 145 control patients, P=0.0027): significantly decreased
percentage of basophils (patients; 282 patients on warfarin vs 145 control patients, P=0.007): significantly decreased
platelets (patients; warfarin- or fluindione-treated patients): not reduced
leukocyte counts or survival in periostin knockout mice after 5-fluorouracil (periostin knockout mice; repetitive doses of 75 mg/kg 5-fluorouracil): did not lead to lower leukocyte counts or decreased survival
total leukocytes or monocytes in periostin knockout mice (periostin knockout mice; vs control periostin knockout mice): did not lead to a decrease
international normalized ratio (INR) (wildtype mice): modest, but significant increase
huCD45+ engraftment in femora (human CD34+ cells [2]; 6 months after transplantation): only trends towards lower
engraftment of human CD45+ leukocytes (human CD34+ cells [2]; cotransplanted with warfarin-treated human stroma, 4 weeks, P=0.046): decreased engraftment
engraftment of human CD45+ leukocytes (human CD34+ cells [3]): reduced engraftment
annexin V+ dead hematopoietic cells in coculture with stroma cells ([4]; in the presence of warfarin vs vehicle, P=0.04): modest increase
number of cobblestone-forming areas ([4]; untreated Lin− cells on previously warfarin-treated stroma, P=0.03): significantly decreased
expression of C-X-C motif chemokine 12 (CxCl12) (stroma cells): trend towards increased expression
expression of osteopontin, Runx 2, Ccl3, Angpt1, Igf1, Notch1 and Wnt7b (stroma cells): significant decreases
expression of stem cell factor (SCF; Kitl) (stroma cells): unchanged
G-CSF-mediated mobilization of LKS SLAM cells into peripheral blood (LKS and LKS SLAM cells; P=0.026): impaired
G-CSF-mediated mobilization of LKS cells into peripheral blood (LKS and LKS SLAM cells; P=0.042): impaired
